# Experiments:
# Format in all cases: in vivo
# [1] = tested on: Alopecurus myosuroides; assay: Pre-emergence herbicidal effect against ALOMY; conditions: 1280 g/ha, visual score after 3 weeks, 100% = plants have died, 0% = like control plants
# Outline: (§1)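 Percent herbicidal activity (100% = dead, 0% = as control) was rated by eye 3 weeks post-application in greenhouse pots of sandy loam, with treatment sprayed onto the covering soil before emergence.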
# [2] = tested on: Digitaria sanguinalis; assay: Pre-emergence herbicidal effect against DIGSA; conditions: 1280 g/ha, visual score after 3 weeks, 100% = plants have died, 0% = like control plants
# Outline: as §1
# [3] = tested on: Echinochloa crus-galli; assay: Pre-emergence herbicidal effect against ECHCG; conditions: 1280 g/ha, visual score after 3 weeks, 100% = plants have died, 0% = like control plants
# Outline: as §1
# [4] = tested on: Lolium rigidum; assay: Pre-emergence herbicidal effect against LOLRI; conditions: 1280 g/ha, visual score after 3 weeks, 100% = plants have died, 0% = like control plants
# Outline: as §1
# [5] = tested on: Poa annua; assay: Pre-emergence herbicidal effect against POAAN; conditions: 1280 g/ha, visual score after 3 weeks, 100% = plants have died, 0% = like control plants
# Outline: as §1
# [6] = tested on: Setaria viridis; assay: Pre-emergence herbicidal effect against SETVI; conditions: 1280 g/ha, visual score after 3 weeks, 100% = plants have died, 0% = like control plants
# Outline: as §1
# [7] = tested on: Abutylon threophrasti; assay: Pre-emergence herbicidal effect against ABUTH; conditions: 1280 g/ha, visual score after 3 weeks, 100% = plants have died, 0% = like control plants
# Excerpt: 1. Pre-emergence herbicidal effect and crop plant compatibility Seeds of monocotyledonous and dicotyledonous weed plants and crop plants are laid out in sandy loam soil in wood-fibre pots and covered with soil. The compounds of the invention, formulated in the form of wettable powders (WP) or as emulsion concentrates (EC), are then applied to the surface of the covering soil as aqueous suspension or emulsion at a water application rate equating to 600 to 800 L/ha with addition of 0.2% wetting agent. After the treatment, the pots are placed in a greenhouse and kept under good growth conditions for the trial plants. The damage to the test plants is scored visually after a test period of 3 weeks by comparison with untreated controls (herbicidal activity in percent (%): 100% activity=the plants have died, 0% activity=like control plants). [table]
# [8] = tested on: Bassia scoparia; assay: Pre-emergence herbicidal effect against KCHSC; conditions: 1280 g/ha, visual score after 3 weeks, 100% = plants have died, 0% = like control plants
# Outline: as §1
# [9] = tested on: Tripleurospermum inodorum; assay: Pre-emergence herbicidal effect against MATIN; conditions: 1280 g/ha, visual score after 3 weeks, 100% = plants have died, 0% = like control plants
# Outline: as §1
# [10] = tested on: Stellaria media; assay: Pre-emergence herbicidal effect against STEME; conditions: 1280 g/ha, visual score after 3 weeks, 100% = plants have died, 0% = like control plants
# Outline: as §1
# [11] = tested on: Veronica persica; assay: Pre-emergence herbicidal effect against VERPE; conditions: 1280 g/ha, visual score after 3 weeks, 100% = plants have died, 0% = like control plants
# Outline: as §1
# [12] = tested on: Alopecurus myosuroides; assay: Post-emergence herbicidal effect against ALOMY; conditions: 1280 g/ha, visual score after about 3 weeks, 100% = plants have died, 0% = like control plants
# Outline: (§2)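 Percent herbicidal effect, judged visually against untreated plants about 3 weeks after treatment, where 100% means dead plants. Treatment was a foliar spray of WP or EC formulations (600 to 800 l/ha water, 0.2% wetting agent) on one-leaf-stage plants raised in sandy loam.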
# [13] = tested on: Digitaria sanguinalis; assay: Post-emergence herbicidal effect against DIGSA; conditions: 1280 g/ha, visual score after about 3 weeks, 100% = plants have died, 0% = like control plants
# Outline: as §2
# [14] = tested on: Echinochloa crus-galli; assay: Post-emergence herbicidal effect against ECHCG; conditions: 1280 g/ha, visual score after about 3 weeks, 100% = plants have died, 0% = like control plants
# Outline: as §2
# [15] = tested on: Lolium rigidum; assay: Post-emergence herbicidal effect against LOLRI; conditions: 1280 g/ha, visual score after about 3 weeks, 100% = plants have died, 0% = like control plants
# Experimental: [table] 2. Post-emergence herbicidal effect and crop plant compatibility Seeds of monocotyledonous and dicotyledonous weed and crop plants are laid out in sandy loam soil in wood-fibre pots, covered with soil and cultivated in a greenhouse under good growth conditions. 2 to 3 weeks after sowing, the test plants are treated at the one-leaf stage. The compounds of the invention, formulated in the form of wettable powders (WP) or as emulsion concentrates (EC), are then sprayed onto the green parts of the plants as aqueous suspension or emulsion at a water application rate equating to 600 to 800 l/ha with addition of 0.2% wetting agent. After the test plants have been left to stand in the greenhouse under optimal growth conditions for about 3 weeks, the action of the preparations is assessed visually in comparison to untreated controls (herbicidal action in percent (%): 100% activity=the plants have died, 0% activity=like control plants).
# [16] = tested on: Poa annua; assay: Post-emergence herbicidal effect against POAAN; conditions: 1280 g/ha, visual assessment about 3 weeks after treatment, 100% = plants have died, 0% = like control plants
# Outline: as §2
# [17] = tested on: Setaria viridis; assay: Post-emergence herbicidal effect against SETVI; conditions: 1280 g/ha, visual assessment about 3 weeks after treatment, 100% = plants have died, 0% = like control plants
# Outline: as §2
# [18] = tested on: Abutylon threophrasti; assay: Post-emergence herbicidal effect against ABUTH; conditions: 1280 g/ha, visual assessment about 3 weeks after treatment, 100% = plants have died, 0% = like control plants
# Outline: as §2
# [19] = tested on: Bassia scoparia; assay: Post-emergence herbicidal effect against KCHSC; conditions: 1280 g/ha, visual assessment about 3 weeks after treatment, 100% = plants have died, 0% = like control plants
# Outline: as §2
# [20] = tested on: Tripleurospermum inodorum; assay: Post-emergence herbicidal effect against MATIN; conditions: 1280 g/ha, visual assessment about 3 weeks after treatment, 100% = plants have died, 0% = like control plants
# Outline: as §2
# [21] = tested on: Stellaria media; assay: Post-emergence herbicidal effect against STEME; conditions: 1280 g/ha, visual assessment about 3 weeks after treatment, 100% = plants have died, 0% = like control plants
# Outline: as §2
# [22] = tested on: Veronica persica; assay: Post-emergence herbicidal effect against VERPE; conditions: 1280 g/ha, visual assessment about 3 weeks after treatment, 100% = plants have died, 0% = like control plants
# Outline: as §2
# [23] = tested on: Amaranthus retroflexus; assay: Pre-emergence herbicidal effect against AMARE; conditions: 1280 g/ha, visual score after 3 weeks, 100% = plants have died, 0% = like control plants
# Outline: as §1
# [24] = tested on: Amaranthus retroflexus; assay: Post-emergence herbicidal effect against AMARE; conditions: 1280 g/ha, visual assessment about 3 weeks after treatment, 100% = plants have died, 0% = like control plants
# Outline: as §2
SMILES,Pre-emergence action against ALOMY [1] [%],Pre-emergence action against DIGSA [2] [%],Pre-emergence action against ECHCG [3] [%],Pre-emergence action against LOLRI [4] [%],Pre-emergence action against POAAN [5] [%],Pre-emergence action against SETVI [6] [%],Pre-emergence action against ABUTH [7] [%],Pre-emergence action against KCHSC [8] [%],Pre-emergence action against MATIN [9] [%],Pre-emergence action against STEME [10] [%],Pre-emergence action against VERPE [11] [%],Post-emergence action against ALOMY [12] [%],Post-emergence action against ECHCG [14] [%],Post-emergence action against LOLRI [15] [%],Post-emergence action against POAAN [16] [%],Post-emergence action against SETVI [17] [%],Post-emergence action against ABUTH [18] [%],Post-emergence action against KCHSC [19] [%],Post-emergence action against MATIN [20] [%],Post-emergence action against VERPE [22] [%],further results
O=C(O)CSc1nn(-c2ccccc2F)c(-c2ccc(F)c(F)c2)c1Cl [Example I-014],100,100,90,100,100,100,100,90,100,100,100,100,90,90,100,90,90,100,100,90,Post-emergence action against DIGSA [13]: 100%; Post-emergence action against STEME [21]: 100%
COC(=O)CCNC(=O)CSc1nn(-c2ccccc2F)c(-c2cncc(F)c2)c1Br [VII-010],90,,90,100,100,100,,90,100,90,100,90,90,90,100,90,90,90,90,90,
O=C(O)CSc1nn(-c2ccccc2F)c(-c2cncc(F)c2)c1Br [II-005],100,100,100,100,100,100,90,90,100,100,100,100,100,90,100,100,90,90,100,100,Pre-emergence action against AMARE [23]: 100%; Post-emergence action against DIGSA [13]: 100%; Post-emergence action against AMARE [24]: 90%; Post-emergence action against STEME [21]: 100%
